The source of these data is patent US4524135A.

One data set has as its system Staphylococcus aureus. As to the kind of experiment: Experimental bacterial infection in mice. Type of data set: in vivo. The settings on record: subcutaneous, two doses. From the text:
(§1) The results of in vivo tests to evaluate the effectiveness of the derivatives against experimental bacterial infections in mice are given in Table III. […] 81, 233-235 (1961)].

A further data set deals with Streptococcus pyogenes. As to the kind of experiment: Experimental bacterial infection in mice. In kind it is in vivo. The settings on record: two doses.
Source text: as §1

The nature of a further data set: Toxicity in mice. The settings on record: mouse, in vivo, iv, administered intravenously. The text has this: | ^a Administered intravenously
For data set [1], the system named is Bacillus subtilis ATCC 6633. The data set can be described thus: Agar-plate disc-diffusion test. Type of data set: cell-based. The conditions noted are these: 1 mg/ml suspension in water, 7-mm disc, 24-48 hours at 25-37° C. Background: In agar diffusion tests the substance spreads into inoculated agar from a disc or well.
For data set [2], the system named is Streptococcus pyogenes C203. The data set can be described thus: Agar-dilution test.
In data set [3] the test system is Staphylococcus epidermidis EPI1. The conditions noted are these: agar dilution.
Data set [4] deals with Staphylococcus aureus X400. The conditions noted are these: agar dilution; methicillin-resistant strain. In general terms: Agar dilution tests growth on a series of plates holding different concentrations.
Data set [5] concerns Staphylococcus aureus V41. The data set can be described thus: Agar-dilution test. In kind it is cell-based. The settings on record: penicillin-resistant strain.
The test system of data set [6] is Staphylococcus aureus X1.1. The data set can be described thus: Agar-dilution test.
In another data set the test system is Streptococcus Group 9960. The settings on record: agar dilution.
Data set [7] deals with Staphylococcus epidermidis EPI2. The data set can be described thus: Agar-dilution test.
Data set [8] relates to Streptococcus Group D X66. The data set can be described thus: Agar-dilution test.
Data set [9] deals with Staphylococcus aureus ATCC 6738P. As to the kind of experiment: Agar-plate disc-diffusion test. Type of data set: cell-based. The conditions noted are these: 1 mg/ml suspension in water, 7-mm disc, 24-48 hours at 25-37° C.
Data set [10] has as its system Micrococcus luteus ATCC 9341. As to the kind of experiment: Agar-plate disc-diffusion test. The settings on record: 1 mg/ml suspension in water, 7-mm disc, 24-48 hours at 25-37° C. In kind it is cell-based.
Data set [11] deals with Streptococcus pneumoniae Park I. As to the kind of experiment: Agar-dilution test. Type of data set: cell-based.

Converted amounts (≈) assume the structure as drawn. “And” between values parts separate entries of the source, which are not always exact repeats. Equal values may be shown once. Where only a bound is given, the exact number is not on record here.

As for `CCCCCCCCCCCCOc1ccc(C(=O)N[C@@H](Cc2c[nH]c3ccccc23)C(=O)N[C@H](CC(N)=O)C(=O)N[C@@H](CC(=O)O)C(=O)N[C@@H]2C(=O)NCC(=O)N[C@@H](CCCN)C(=O)N[C@@H](CC(=O)O)C(=O)N[C@H](C)C(=O)N[C@@H](CC(=O)O)C(=O)NCC(=O)N[C@H](CO)C(=O)N[C@@H]([C@H](C)CC(=O)O)C(=O)N[C@@H](CC(=O)c3ccccc3N)C(=O)O[C@@H]2C)cc1` [Example 8, NTrp -p-(n-dodecyloxy)benzoyl-A-21978C Nucleus], the ED50 is on record as 3.35 mg/kg × 2 in the data set on Staphylococcus aureus, over 200 mg/kg × 2 in the data set with Streptococcus pyogenes (oral) and 0.31 mg/kg × 2 in the data set on Streptococcus pyogenes (subcutaneous). The LD50 in “Toxicity in mice” worked out at 67.5 mg/kg. Besides, the “Size of Zone of Inhibition” value in data set [1] was determined as 13 mm; in [1] (grown on minimal nutrient agar), 20 mm; in data set [9] it was 20 mm; in data set [10], 18 mm. Also, the minimal inhibitory concentration (MIC) in data set [2] was found to be 0.25 µg/mL (≈ 0.142 µM); in data set [3] it was 4 µg/mL (≈ 2.28 µM); in data set [4], 2 µg/mL (≈ 1.14 µM); in data set [5], 1 µg/mL (≈ 0.57 µM); in data set [6] it was 1 µg/mL (≈ 0.57 µM); against Streptococcus Group 9960, 1 µg/mL (≈ 0.57 µM). The minimum inhibitory concentration (MIC) in [7] and in data set [8] was 2 µg/mL (≈ 1.14 µM) in each case.

As for `CCCCCCCCCC(=O)N[C@@H](Cc1c[nH]c2ccccc12)C(=O)N[C@@H](CC(N)=O)C(=O)N[C@@H](CC(=O)O)C(=O)N[C@@H]1C(=O)NCC(=O)N[C@@H](CCCN)C(=O)N[C@@H](CC(=O)O)C(=O)N[C@H](C)C(=O)N[C@@H](CC(=O)O)C(=O)NCC(=O)N[C@H](CO)C(=O)N[C@@H]([C@H](C)CC(=O)O)C(=O)N[C@@H](CC(=O)c2ccccc2N)C(=O)O[C@@H]1C` [Example 6], the ED50 in the data set on Staphylococcus aureus was 0.28 mg/kg × 2; in the data set with Streptococcus pyogenes (oral) it was 66 mg/kg × 2; in the data set on Streptococcus pyogenes (subcutaneous), 0.03 mg/kg × 2. For the same compound, the LD50 in “Toxicity in mice” was over 300 mg/kg. Moreover, the “Size of Zone of Inhibition” value in data set [1] was 20 mm; in data set [1] (grown on minimal nutrient agar), 29 mm; in data set [9], 24 mm; in data set [10], 22 mm. Moreover, the MIC in data set [2] is 0.25 µg/mL and 0.125 µg/mL; in data set [3], 2 µg/mL and 1 µg/mL; in data set [4] it was 2 µg/mL and 1 µg/mL; in data set [5], 1 µg/mL and 0.5 µg/mL; in [6], 1 µg/mL and 0.5 µg/mL; in the data set with Streptococcus Group 9960 it was 2 µg/mL (≈ 1.23 µM). Besides, the minimal inhibitory concentration (MIC) is 1 µg/mL and 0.5 µg/mL in data set [7]; 16 µg/mL (≈ 9.87 µM) in [8]; 1 µg/mL and 0.5 µg/mL in [11].

`CCCCCCCCCC(=O)N[C@@H](Cc1ccccc1)C(=O)N[C@@H](Cc1c[nH]c2ccccc12)C(=O)N[C@@H](CC(N)=O)C(=O)N[C@@H](CC(=O)O)C(=O)N[C@@H]1C(=O)NCC(=O)N[C@@H](CCCN)C(=O)N[C@@H](CC(=O)O)C(=O)N[C@H](C)C(=O)N[C@@H](CC(=O)O)C(=O)NCC(=O)N[C@H](CO)C(=O)N[C@@H]([C@H](C)CC(=O)O)C(=O)N[C@@H](CC(=O)c2ccccc2N)C(=O)O[C@@H]1C` [Example 7, NTrp-[N-(n-Decanoyl)-L-phenylalanyl]-A-21978C Nucleus]: the ED50 in the data set with Staphylococcus aureus was 0.7 mg/kg × 2 and 0.98 mg/kg × 2; in the data set with Streptococcus pyogenes (oral), over 200 mg/kg × 2; in the data set with Streptococcus pyogenes (subcutaneous) it was 0.39 mg/kg × 2. In “Toxicity in mice”, this compound came in with an LD50 of 600 mg/kg. For the same compound, the “Size of Zone of Inhibition” value in data set [1] came to 22 mm; in data set [1] (grown on minimal nutrient agar), 31 mm; in data set [9] it was 30 mm; in [10] it was 24 mm. Moreover, the MIC in data set [2] was found to be 0.25 µg/mL (≈ 0.141 µM); in [3] it was 1 µg/mL (≈ 0.566 µM); in data set [4], 1 µg/mL (≈ 0.566 µM); in [5], 0.5 µg/mL (≈ 0.283 µM); in [6], 0.5 µg/mL (≈ 0.283 µM); in the data set with Streptococcus Group 9960, 2 µg/mL (≈ 1.13 µM). For the same compound, the MIC amounted to 0.5 µg/mL (≈ 0.283 µM) in data set [7], 8 µg/mL (≈ 4.53 µM) in data set [8] and 0.5 µg/mL (≈ 0.283 µM) in [11].

Broadly, the LD50 is the dose at which mortality reaches 50%. High values mean a less toxic substance, low ones a more toxic substance. As usually defined, the MIC is the lowest concentration found to suppress growth.
